Source: patent US20230167103A1 (Bayer Aktiengesellschaft, priority 2020, published 2023)

What follows are molecules tested against T1, human DGKζ (Homo sapiens, UniProt Q13574) (assay: Human DGKζ kinase activity inhibition assay (ADP-Glo)). Conditions: example compounds; recombinant full-length human DGKζ, 1,2-dioleoyl-sn-glycerol 7 μM, ATP 55 μM, 20 min at 22° C.; read-out: IC50 values of examples in in vitro human DGKζ kinase activity inhibition assays.
T1 construct: made in house; host or cells: Sf9 insect cells, baculovirus
T1 sequence (Q13574 with tags, fused parts or gaps): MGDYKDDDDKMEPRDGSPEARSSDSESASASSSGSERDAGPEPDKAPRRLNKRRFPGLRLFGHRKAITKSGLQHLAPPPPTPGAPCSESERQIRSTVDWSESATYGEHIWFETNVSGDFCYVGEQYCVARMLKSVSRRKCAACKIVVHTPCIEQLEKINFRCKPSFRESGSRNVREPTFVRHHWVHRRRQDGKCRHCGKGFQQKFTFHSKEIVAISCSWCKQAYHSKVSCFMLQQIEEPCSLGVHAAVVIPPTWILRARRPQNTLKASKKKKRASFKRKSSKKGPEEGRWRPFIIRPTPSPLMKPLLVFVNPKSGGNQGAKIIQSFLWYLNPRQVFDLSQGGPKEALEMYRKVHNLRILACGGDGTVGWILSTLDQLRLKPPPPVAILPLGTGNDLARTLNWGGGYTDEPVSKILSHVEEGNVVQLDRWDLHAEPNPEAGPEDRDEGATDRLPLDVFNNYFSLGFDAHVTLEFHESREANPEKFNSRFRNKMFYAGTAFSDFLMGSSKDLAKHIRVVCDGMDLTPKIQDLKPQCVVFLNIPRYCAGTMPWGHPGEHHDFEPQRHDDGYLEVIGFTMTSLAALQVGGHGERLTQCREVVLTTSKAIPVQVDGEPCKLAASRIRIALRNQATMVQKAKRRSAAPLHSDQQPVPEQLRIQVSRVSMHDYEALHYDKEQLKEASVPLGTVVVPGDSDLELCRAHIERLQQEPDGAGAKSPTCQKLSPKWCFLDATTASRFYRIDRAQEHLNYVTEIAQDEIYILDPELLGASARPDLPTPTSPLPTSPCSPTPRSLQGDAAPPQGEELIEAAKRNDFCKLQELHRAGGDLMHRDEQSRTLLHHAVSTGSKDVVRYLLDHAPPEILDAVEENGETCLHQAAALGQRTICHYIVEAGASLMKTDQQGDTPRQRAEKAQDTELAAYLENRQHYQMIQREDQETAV
Assay type: biochemical
Description: Human diacylglycerol kinase zeta (DGKζ) inhibitory activity of compounds of the present invention was quantified employing the human DGKζ kinase activity assay as described in the following paragraphs. In essence, the enzyme activity was measured by quantification of the adenosine-di-phosphate (ADP) generated as a co-product of the enzyme reaction via the “ADP-Glo™ Kinase Assay” kit from the company Promega. This detection system works as follows: In a first step the adenosine-tri-phosphate (ATP) not consumed in the kinase reaction is quantitatively converted to cyclic adenosine-mono-phosphate (cAMP) employing an adenylate cyclase (“ADP-Glo-reagent”), then the adenylate cyclase is stopped and the ADP generated in the kinase reaction is converted to ATP, which subsequently generates in a luciferase-based reaction a glow-luminescence signal (“Kinase Detection Reagent”).
C-terminally FLAG-tagged, recombinant full-length human DGKζ (inhouse expressed in baculovirus infected insect cells, purified using anti-Flag pulldown and size exclusion chromatography) was used as enzyme. As an alternative, commercially available enzyme by Carnabio can be used. As substrate for the kinase, 1,2-dioleoyl-sn-glycerol, reconstituted in octyl-β-D-glucopyranoside micelles, was used. […] Subsequently, 22.55 volumes of a 510 mM solution of octyl-β-D-glucopyranoside (Sigma-Aldrich, Cat. #O8001-10G) in 50 mM MOPS buffer (pH 7.4) were added, and the mixture was sonicated in an ultrasonic bath for 20 s. Then 35 volumes of 50 mM MOPS buffer (pH 7.4) were added to yield a solution of 0.28 mM 1,2 dioleoyl-sn-glycerol and 200 mM octyl-β-D-glucopyranoside, which was aliquoted, flash-frozen in liquid nitrogen, and stored at −20° C. until use.
For the assay 50 nl of a 100-fold concentrated solution of the test compound in dimethyl sulfoxide (DMSO, Sigma) was pipetted into either a white 1536-well or a white low-volume 384-well microtiter plate (both Greiner Bio-One, Frickenhausen, Germany). […] The concentration of DGKζ was adjusted depending of the activity of the enzyme lot and was chosen appropriate to have the assay in the linear range, a typical concentration is about 0.1 nM. The reaction was stopped by the addition of 2.5 μL of “ADP-Glo-reagent” (1 to 1.5 diluted with water) and the resulting mixture was incubated at 22° C. for 1 h to convert the ATP not consumed in the kinase reaction completely to cAMP. Subsequently 2.5 μl of the “kinase detection reagent” (1.2 fold more concentrated than recommended by the producer) were added, the resulting mixture was incubated at 22° C. for 1 h and then the luminescence measured with a suitable measurement instrument (e.g. Viewlux™ from Perkin-Elmer). The amount of emitted light was taken as a measure for the amount of ADP generated and thereby for the activity of the DGKζ.
The data were normalised (enzyme reaction without inhibitor=0% inhibition, all other assay components but no enzyme=100% inhibition).
An IC50 of 77 nM was found for CC(C(N)=O)N(c1ccc(F)c(F)c1)c1nc(N)c(C(=O)c2cc(C(=O)NC3CCCC3)no2)s1 (racemic) [Example 46, rac-5-[4-amino-2-(N-(2-amino-1-methyl-2-oxo-ethyl)-3,4-difluoro-anilino)thiazole-5-carbonyl]-N-cyclopentyl-isoxazole-3-carboxamide] in this work.
An IC50 of 42 nM was found for CC(C(N)=O)N(c1ccc(F)cc1)c1nc(N)c(C(=O)c2cc(C3CCCC3)no2)s1 (racemic) [Example 47, rac-2-(N-[4-amino-5-(3-cyclopentylisoxazole-5-carbonyl)thiazol-2-yl]-4-fluoro-anilino)propanamide] in this work.
An IC50 of 73 nM was found for CC(C(N)=O)N(c1ccc(F)cc1)c1nc(N)c(C(=O)c2cc(OC(F)F)no2)s1 (racemic) [Example 48, rac-2-(N-[4-amino-5-[3-(difluoromethoxy)isoxazole-5-carbonyl]thiazol-2-yl]-4-fluoro-anilino)propanamide] in this work.
An IC50 of 28 nM was found for CC(C)c1noc(C(=O)c2sc(N(c3ccc(F)cc3)C(C)C(N)=O)nc2N)n1 (racemic) [Example 49, rac-2-(N-[4-amino-5-(3-isopropyl-1,2,4-oxadiazole-5-carbonyl)thiazol-2-yl]-4-fluoro-anilino)propanamide] in this work.
An IC50 of 409 nM was found for CC(C(N)=O)N(c1ccc(F)cc1)c1nc(N)c(C(=O)c2cc(-c3ccccc3)ns2)s1 (racemic) [Example 50, rac-2-(N-[4-amino-5-(3-phenylisothiazole-5-carbonyl)thiazol-2-yl]-4-fluoro-anilino)propanamide] in this work.
An IC50 of 17 nM was found for CC(C(N)=O)N(c1ccc(F)cc1)c1nc(N)c(C(=O)c2nc(-c3ccccc3)no2)s1 (racemic) [Example 51, rac-2-(N-[4-amino-5-(3-phenyl-1,2,4-oxadiazole-5-carbonyl)thiazol-2-yl]-4-fluoro-anilino) propanamide] in this work.
An IC50 of 412 nM was found for Cc1noc(C(=O)c2sc(N(c3ccc(F)cc3)C(C)C(N)=O)nc2N)n1 (racemic) [Example 52, rac-2-(N-[4-amino-5-(3-methyl-1,2,4-oxadiazole-5-carbonyl)thiazol-2-yl]-4-fluoro-anilino)propanamide] in this work.
An IC50 of 25 nM was found for CC(C(N)=O)N(c1ccc(F)cc1)c1nc(N)c(C(=O)c2nc(C(C)(C)C)no2)s1 (racemic) [Example 53, rac-2-(N-[4-amino-5-(3-tert-butyl-1,2,4-oxadiazole-5-carbonyl)thiazol-2-yl]-4-fluoro-anilino)propanamide] in this work.
An IC50 of 306 nM was found for CC(C(N)=O)N(c1ccc(F)cc1)c1nc(N)c(C(=O)c2nc(-c3ccccn3)no2)s1 (racemic) [Example 54, rac-2-(N-[4-amino-5-[3-(2-pyridyl)-1,2,4-oxadiazole-5-carbonyl]thiazol-2-yl]-4-fluoro-anilino)propanamide] in this work.
An IC50 of 17 nM was found for CC(C(N)=O)N(c1ccc(F)cc1)c1nc(N)c(C(=O)c2nc(-c3cccc(F)c3)no2)s1 (racemic) [Example 55, rac-2-(N-[4-amino-5-[3-(3-fluorophenyl)-1,2,4-oxadiazole-5-carbonyl]thiazol-2-yl]-4-fluoro-anilino)propanamide] in this work.
An IC50 of 14 nM was found for Cc1cccc(-c2noc(C(=O)c3sc(N(c4ccc(F)cc4)C(C)C(N)=O)nc3N)n2)c1C (racemic) [Example 56, rac-2-(N-[4-amino-5-[3-(2,3-dimethylphenyl)-1,2,4-oxadiazole-5-carbonyl]thiazol-2-yl]-4-fluoro-anilino)propanamide] in this work.
An IC50 of 32 nM was found for CC(C(N)=O)N(c1ccc(F)cc1)c1nc(N)c(C(=O)c2nc(C3CC3)no2)s1 (racemic) [Example 57, rac-2-(N-[4-amino-5-(3-cyclopropyl-1,2,4-oxadiazole-5-carbonyl)thiazol-2-yl]-4-fluoro-anilino)propanamide] in this work.
An IC50 of 325 nM was found for CC(C(N)=O)N(c1ccc(F)cc1)c1nc(N)c(C(=O)c2nc(-c3cnn(C)c3)no2)s1 (racemic) [Example 58, rac-2-(N-[4-amino-5-[3-(1-methylpyrazol-4-yl)-1,2,4-oxadiazole-5-carbonyl]thiazol-2-yl]-4-fluoro-anilino)propanamide] in this work.
An IC50 of 12 nM was found for CC(C(N)=O)N(c1ccc(F)cc1)c1nc(N)c(C(=O)c2nc(C3CCCC3)no2)s1 (racemic) [Example 59, rac-2-(N-[4-amino-5-(3-cyclopentyl-1,2,4-oxadiazole-5-carbonyl)thiazol-2-yl]-4-fluoro-anilino)propanamide] in this work.
An IC50 of 58 nM was found for CC(C(N)=O)N(c1ccc(F)cc1)c1nc(N)c(C(=O)c2cc(CN(C)C3CCCC3)no2)s1 (racemic) [Example 60, rac-2-(N-[4-amino-5-[3-[[cyclopentyl(methyl)amino]methyl]isoxazole-5-carbonyl]thiazol-2-yl]-4-fluoro-anilino)propanamide] in this work.
An IC50 of 98 nM was found for CC(C(N)=O)N(c1ccc(F)cc1)c1nc(N)c(C(=O)c2cc(CNC3(C)CCCC3)no2)s1 (racemic) [Example 61, rac-2-(Np[4-amino-5-[3-[[(1-methylcyclopentyl)amino]methyl]isoxazole-5-carbonyl]thiazol-2-yl]-4-fluoro-anilino)propanamide] in this work.
An IC50 of 194 nM was found for CC(C(N)=O)N(c1ccc(F)cc1)c1nc(N)c(C(=O)c2cc(CNC3CCCC3)no2)s1 (racemic) [Example 62, rac-2-(N-[4-amino-5-[3-[(cyclopentylamino)methyl]isoxazole-5-carbonyl]thiazol-2-yl]-4-fluoro-anilino)propanamide] in this work.
An IC50 of 88 nM was found for CC(C(N)=O)N(c1ccc(F)cc1)c1nc(N)c(C(=O)c2cc(CN3CCCCC3)no2)s1 (racemic) [Example 63, rac-2-(N-[4-amino-5-[3-(1-piperidylmethyl)isoxazole-5-carbonyl]thiazol-2-yl]-4-fluoro-anilino)propanamide] in this work.
An IC50 of 32 nM was found for CC(C(N)=O)N(c1ccc(F)cc1)c1nc(N)c(C(=O)c2cc(COc3ccc(C#N)cc3)no2)s1 (racemic) [Example 64, rac-2-(N-[4-amino-5-[3-[(4-cyanophenoxy)methyl]isoxazole-5-carbonyl]thiazol-2-yl]-4-fluoro-anilino)propanamide] in this work.
An IC50 of 751 nM was found for CC(C(N)=O)N(c1ccc(F)cc1)c1nc(N)c(C(=O)c2cc(CO)no2)s1 (racemic) [Example 65, rac-2-(N-[4-amino-5-[3-(hydroxymethyl)isoxazole-5-carbonyl]thiazol-2-yl]-4-fluoro-anilino)propanamide] in this work.
An IC50 of 29 nM was found for CC(C(N)=O)N(c1ccc(F)cc1)c1nc(N)c(C(=O)c2cc(COC(=O)Nc3ccccc3)no2)s1 (racemic) [Example 66, rac-[5-[4-amino-2-(N-(2-amino-1-methyl-2-oxo-ethyl)-4-fluoro-anilino)thiazole-5-carbonyl]isoxazol-3-yl]methyl N-phenylcarbamate] in this work.
An IC50 of 109 nM was found for CC(C(N)=O)N(c1ccc(F)cc1)c1nc(N)c(C(=O)c2cc(-c3ccccc3F)no2)s1 (racemic) [Example 67, rac-2-(N-[4-amino-5-[3-(2-fluorophenyl)isoxazole-5-carbonyl]thiazol-2-yl]-4-fluoro-anilino)propanamide] in this work.
An IC50 of 402 nM was found for CC(C(N)=O)N(c1ccc(F)cc1)c1nc(N)c(C(=O)c2cc(-c3ccccn3)no2)s1 (racemic) [Example 68, rac-2-(N-[4-amino-5-[3-(2-pyridypisoxazole-5-carbonyl]thiazol-2-yl]-4-fluoro-anilino)propanamide] in this work.
An IC50 of 117 nM was found for CC(C(N)=O)N(c1ccc(F)cc1)c1nc(N)c(C(=O)c2cc(-c3ccc(OC(F)(F)F)cc3)no2)s1 (racemic) [Example 69, rac-2-(N-[4-amino-5-[3-[4-(trifluoromethoxy)phenyl]isoxazole-5-carbonyl]thiazol-2-yl]-4-fluoro-anilino)propanamide] in this work.
An IC50 of 27 nM was found for COc1ccccc1-c1cc(C(=O)c2sc(N(c3ccc(F)cc3)C(C)C(N)=O)nc2N)on1 (racemic) [Example 70, rac-2-(N-[4-amino-5-[3-(2-methoxyphenyl)isoxazole-5-carbonyl]thiazol-2-yl]-4-fluoro-anilino)propanamide] in this work.
An IC50 of 96 nM was found for COc1ccc(-c2cc(C(=O)c3sc(N(c4ccc(F)cc4)C(C)C(N)=O)nc3N)on2)cn1 (racemic) [Example 71, rac-2-(N-[4-amino-5-[3-(6-methoxy-3-pyridyl))isoxazole-5-carbonyl]thiazol-2-yl]-4-fluoro-anilino)propanamide] in this work.
